Consider one compound from patent US20100261751A1, “METHOD FOR D[…] OF THE TWO HUMAN IMMUNODEFICIENCY VIRUS (HIV) INTEGRASE ENZYMATIC […]” (priority 2007, published 2010).

Each structure is given as a SMILES string.

The assay has as its target T1, HIV integrase (Human immunodeficiency virus type 1 group M subtype B, UniProt P04585).
T1 construct: stored proteins (integrase, wt, 49 μM in)
In words: 3dQ assay: HIV integrase 3′-end processing fluorescence in vitro assay. Format: biochemical. As to conditions: dose response, FIG. 1.

T1 sequence (O75475 whole entry, other chains not shown): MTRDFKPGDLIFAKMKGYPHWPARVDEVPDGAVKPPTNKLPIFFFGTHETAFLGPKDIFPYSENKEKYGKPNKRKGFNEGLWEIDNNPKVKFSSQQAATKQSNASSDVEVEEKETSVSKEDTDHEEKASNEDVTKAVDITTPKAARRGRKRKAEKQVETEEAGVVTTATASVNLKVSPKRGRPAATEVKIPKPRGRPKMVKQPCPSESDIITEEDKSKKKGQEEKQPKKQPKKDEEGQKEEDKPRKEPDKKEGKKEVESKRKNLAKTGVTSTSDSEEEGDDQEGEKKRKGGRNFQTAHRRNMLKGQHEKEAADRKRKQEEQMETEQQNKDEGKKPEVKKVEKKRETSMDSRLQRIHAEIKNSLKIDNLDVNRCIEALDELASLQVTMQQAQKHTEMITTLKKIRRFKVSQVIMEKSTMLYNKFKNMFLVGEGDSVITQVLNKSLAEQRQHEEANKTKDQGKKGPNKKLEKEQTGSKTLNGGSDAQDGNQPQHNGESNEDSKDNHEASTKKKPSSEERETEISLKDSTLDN

For `O=C(O)C(=O)CC(=O)c1cccn1Cc1ccc(F)cc1` [L731,988], the “inhibition of 3′-end processing (result in words)” value is “only showed a weak response”.
